Here are results for 4 molecules from patent publication US20090238852A1, “METHODS FOR CONTROLLING INTRACELLULAR CALCIUM LEVELS ASSOCIATED WITH AN ISCHEMIC EVENT” (University of Utah Research Foundation, priority 2008, published 2009).

The subject of one experiment is NCE. The conditions noted are these: cited from earlier work.
Experiment [1] deals with rabbit ventricular myocytes. Nature of the experiment: Intracellular calcium [Ca^++]i in ventricular myocytes during paced metabolic ischemia (PMI), Fluo-3 flow cytometry. The experiment is classed as cell-based. The conditions noted are these: n = 7. An excerpt: Consequently, it prevents intracellular sodium overload and subsequent reverse mode operation of the sodium-calcium exchanger. The effect of 2-O, 3-O desulfated heparin on accumulation of intracellular Ca^++ during ischemia was studied in an adult rabbit ventricular myocyte model previously reported (Boston D R, et al. J Pharmacol Exp Ther 285:716-723, 1998; Li F, et al. J Mol Cell Cardiol 33:2145-2155, 2001). Isolated cardiomyocytes have been validated as reliable models of ischemia (Diaz, R J, Wilson G J. Cardiovasc Res 70:286-296, 2006).
To produce the model, hearts are removed from albino rabbits (2-3 kg) anesthetized with sodium pentobarbital (65 mg/kg IV). The heart was immediately attached to an aorta cannula. Continuous perfusion of the coronary arteries at 37° C. by a pump (Masterflex, Cole-Parmer Instrument Co., Chicago, Ill.) was initiated at a perfusion pressure of 60 mm Hg. The heart was first perfused with nominally Ca^++-free modified Krebs-Ringer bicarbonate buffered solution (MKRBB, pH 7.40, containing in mmol/L: NaCl 126, KCl 4.4, […], MgCl2 1.0, HEPES 24, probenecid 0.5 and glucose 5) for 10 min, immediately followed by 15-25 min of recirculating perfusion with the same solutions containing 0.3 mg/ml collagenase (Type 2, Worthington Biochemical, Freehold, N.J.), 0.4 mg/mL hyaluronidase (Type-S, Sigma-Aldrich, St. Louis, Mo.) and 50 μmol/L CaCl2. The heart was then detached from the cannula, and the left ventricle was minced and transferred to a 50 mL conical tube with the same solution containing 0.24 mg/mL collagenase, 0.02 mg/mL trypsin and 50 μmol/L Ca^++ for a second digestion. The minced tissue was continuously agitated by gassing the solution with 5% CO2 and 95% O2 to help release isolated myocytes. The resulting supernatant was transferred to another conical tube with the same volume of the same solution containing 0.03 mg/mL of trypsin inhibitor (Sigma-Aldrich). The cell suspension was centrifuged at 5×g for 5 minutes. The supernatant was discarded and cells were resuspended in solution with a higher Ca^++ concentration (200 μmol/L) and incubated in a CO2 incubator (5% CO2, 28° C.) to settle down cells by gravity for 10 min. The same procedure was repeated twice to bring up the Ca^++ concentration slowly (500, then 1000 μmol/L). Calcium step-up solutions were made from MKRBB with 2% albumin, 50 μmol/L CaCl2 mixed with the appropriate amount of minimum essential medium (MEM, Gibco Laboratories, Grand Island, N.Y.). At the end of isolation, cells were filtered with a […] to avoid cell clumping during flow cytometry studies. The yield of rod-shaped viable myocytes averaged 50%. Cells were used for experiments within 4 hours after dissociation.
In these studies, intracellular calcium concentration [Ca^++]i was measured by flow cytometry. Measurement of isolated mouse and rabbit ventricular myocyte [Ca^2+]i and [Na^+]i by flow cytometry has been described (Zhang et al., J. Cardiovasc. Pharmacol. 51: 443-449 (2008); Li et al., J. Mol. Cell. Cardiol. 33: 2145-2155 (2001)). [Ca^++]i was measured with the Ca^++ sensitive fluorescent probe, Fluo 3-AM (Molecular Probes, Eugene, Oreg.), using a FACScan (Becton-Dickinson, MA). The cells were exposed to 4 μmol/L Fluo-3 AM for 30 min at 37° C. The cells were then separated into aliquots. After 40 min of wash, the cells were exposed to paced metabolic ischemia (MI) for 45 min at 37° C. Metabolic ischemia was accomplished by incubating cells in a glucose-free MKRBB solution (pH 7.40) containing 2 mmol/L sodium cyanide (NaCN) to impair mitochondrial and glycolytic generation of ATP. To reproduce the situation in the beating ischemic heart, during the period of metabolic ischemia, myocytes were placed in a 5-well chamber with equal volumes of myocyte suspensions from the same heart dissociation placed in each well. The chamber was water bathed to maintain temperature at 37° C. and bubbled with 5% CO2 in air to keep myocytes in suspension. […]
For orientation: Calcium flux is commonly read through the fluorescence of an indicator in the cells.

Experiment [2] relates to rabbit ventricular myocytes. Put plainly: [Ca^++]i during paced aerobic metabolism (PH) with the Na^+ channel opener ATX. It counts as cell-based. The conditions noted are these: PH + ATX 20 nmol/L; n = 7; PH alone 406.8 ± 15.9. As for the experimental part:
(§1) In these studies, intracellular calcium concentration [Ca^++]i was measured by flow cytometry. Measurement of isolated mouse and rabbit ventricular myocyte [Ca^2+]i and [Na^+]i by flow cytometry has been described (Zhang et al., J. Cardiovasc. Pharmacol. 51: 443-449 (2008); Li et al., J. Mol. Cell. Cardiol. 33: 2145-2155 (2001)). [Ca^++]i was measured with the Ca^++ sensitive fluorescent probe, Fluo 3-AM (Molecular Probes, Eugene, Oreg.), using a FACScan (Becton-Dickinson, MA). The cells were exposed to 4 μmol/L Fluo-3 AM for 30 min at 37° C. The cells were then separated into aliquots. After 40 min of wash, the cells were exposed to paced metabolic ischemia (MI) for 45 min at 37° C. Metabolic ischemia was accomplished by incubating cells in a glucose-free MKRBB solution (pH 7.40) containing 2 mmol/L sodium cyanide (NaCN) to impair mitochondrial and glycolytic generation of ATP. To reproduce the situation in the beating ischemic heart, during the period of metabolic ischemia, myocytes were placed in a 5-well chamber with equal volumes of myocyte suspensions from the same heart dissociation placed in each well. The chamber was water bathed to maintain temperature at 37° C. and bubbled with 5% CO2 in air to keep myocytes in suspension. […] Approximately 2×10^3 myocytes were analyzed to calculate average emission fluorescence intensity in each sample. […] Only those cells with low fluorescence intensity at 670 nm (PI-negative cells or viable cells) were included in the comparative analysis of [Ca^++]i. The sample [Ca^2+]i values were calculated by Mn^2+ quenching (Sugishita et al, 2001) and [Na^+]i values by comparison with a standard curve of varied [Na^+]i versus Na Green fluorescence. […] Results were expressed as means±SEM. […]
To further examine the role of ODSH as a Na^+ inhibitor, additional experiments were performed in which the Na^+ channel opener amenone toxin II (ATX) was added to medium in a final concentration of 20 nmol/L to open the cardiac myocyte membrane Na^+ channel. […] Intracellular calcium concentration [Ca^++]i was monitored as earlier. […]

Experiment [3] has as its system rabbit ventricular myocytes. Put plainly: [Na^+]i in paced myocytes exposed to ATX, no metabolic inhibition. The conditions noted are these: ATX 10 nM, HEPES + pacing; FIG. 9; n = 6. It counts as cell-based. As for the experimental part:
as §1, with “After 40 min of wash, the cells were exposed to paced metabolic ischemia (MI) for 45 min at 37° C.” left out, “suspension. Each well was fitted with platinum sheet electrodes on both sides for field stimulation. One chamber was constructed with a glass coverslip bottom so that myocytes can be observed microscopically to assess capture threshold. Placing electrodes were connected in series to a constant current pulse generator that delivers a 0.2 ampere pulse at 0.5 Hz.” for “suspension.”

Take `CS(=O)(=O)O.N=C(N)SCCc1ccc(OCc2ccc([N+](=O)[O-])cc2)cc1` [KBR, 2-[2-[4-(4-nitrobenzyloxy)phenyl]ethyl]isothiourea metanesulfonate, reference compound]: the “selectivity for reserve mode versus forward mode” value with NCE (Iwamoto 1996) is listed as 50 fold. Besides, the “[Ca^++]i” value in experiment [1] (Table 6: PMI + KBR 10 μmol/L, PMI alone 985.5 ± 42.7) amounted to 666.5 ± 50.7 nM. Regarding `CCOc1ccc(Oc2ccc(OCc3cc(F)ccc3F)cc2)c(N)c1` [SEA0400, 2-[4-[(2,5-difluorophenyl)methoxy]-phenoxy]-5-ethoxyaniline], the “selectivity for the reverse versus forward mode of the NCE” value in the experiment on NCE (Matsuda 2001) is given as “lacks selectivity for the reverse versus forward mode of the NCE”. With `COc1ccccc1OCC(O)CN1CCN(CC(=O)Nc2c(C)cccc2C)CC1` (stereo not drawn) [ranolazine, reference compound], the “effect on [Ca^2+]i during P-MI” value in experiment [1] (each alone: ODSH 100 μg/ml, ranolazine 10 μM, FIG. 8) was “reduced [Ca^2+]i to a similar degree”. Take “ATX: Na^+ channel opener; selective activator of INa,L [reference compound]”: the “[Ca^++]i” value in experiment [2] was 529.1 ± 29.3 nM. Moreover, the “effect on [Na^+]i in paced myocytes” value in experiment [3] is “substantial increase in [Na^+]i”.
